# Data taken from patent publication US10045981B2, “Selective kinase inhibitors” (JAKPHARM, LLC, priority 2015, dated 2018).
# Like-named read-outs stand apart in the source and are kept apart here.
# Columns and labels:
# [1] = Solubility in aqueous buffer; format: physicochemical; settings: for solubility: aqueous buffer
# [2] = molecular target: JAK1 (Homo sapiens, UniProt P23458); assay: JAK1 IC50; format: biochemical
# [3] = molecular target: CK1g3 (Homo sapiens, UniProt Q9Y6M4); assay: Exemplary Kinase Panel Analysis; format: biochemical; settings: 10 concentrations, 3-fold serial dilutions starting at 5 μM, duplicate
# [4] = test system: L929 Fibroblasts; assay: Cytotoxicity Screening L929 Fibroblasts; format: cell-based
# Excerpt: (§1) The cytotoxicity screening panel included cell count, nuclear size, DNA structure, cell membrane permeability, mitochondrial mass, mitochondrial membrane potential, and cytochrome C release.
# [5] = Cytotoxicity Screening L929 Fibroblasts; format: cell-based; settings: mouse, read-out: 50% Maximal Effect Concentration (AC50)
# Excerpt: as §1
# [6] = molecular target: CYP2D6 (Homo sapiens, UniProt P10635); assay: CYP2D6 inhibition LCMS; format: in vitro ADME
# [7] = molecular target: T1, JAK3 (Homo sapiens, UniProt P52333); assay: Exemplary Kinase Panel Analysis; format: biochemical; settings: 10 concentrations, 3-fold serial dilutions starting at 5 μM, duplicate
# T1 sequence (P52333 1-1124): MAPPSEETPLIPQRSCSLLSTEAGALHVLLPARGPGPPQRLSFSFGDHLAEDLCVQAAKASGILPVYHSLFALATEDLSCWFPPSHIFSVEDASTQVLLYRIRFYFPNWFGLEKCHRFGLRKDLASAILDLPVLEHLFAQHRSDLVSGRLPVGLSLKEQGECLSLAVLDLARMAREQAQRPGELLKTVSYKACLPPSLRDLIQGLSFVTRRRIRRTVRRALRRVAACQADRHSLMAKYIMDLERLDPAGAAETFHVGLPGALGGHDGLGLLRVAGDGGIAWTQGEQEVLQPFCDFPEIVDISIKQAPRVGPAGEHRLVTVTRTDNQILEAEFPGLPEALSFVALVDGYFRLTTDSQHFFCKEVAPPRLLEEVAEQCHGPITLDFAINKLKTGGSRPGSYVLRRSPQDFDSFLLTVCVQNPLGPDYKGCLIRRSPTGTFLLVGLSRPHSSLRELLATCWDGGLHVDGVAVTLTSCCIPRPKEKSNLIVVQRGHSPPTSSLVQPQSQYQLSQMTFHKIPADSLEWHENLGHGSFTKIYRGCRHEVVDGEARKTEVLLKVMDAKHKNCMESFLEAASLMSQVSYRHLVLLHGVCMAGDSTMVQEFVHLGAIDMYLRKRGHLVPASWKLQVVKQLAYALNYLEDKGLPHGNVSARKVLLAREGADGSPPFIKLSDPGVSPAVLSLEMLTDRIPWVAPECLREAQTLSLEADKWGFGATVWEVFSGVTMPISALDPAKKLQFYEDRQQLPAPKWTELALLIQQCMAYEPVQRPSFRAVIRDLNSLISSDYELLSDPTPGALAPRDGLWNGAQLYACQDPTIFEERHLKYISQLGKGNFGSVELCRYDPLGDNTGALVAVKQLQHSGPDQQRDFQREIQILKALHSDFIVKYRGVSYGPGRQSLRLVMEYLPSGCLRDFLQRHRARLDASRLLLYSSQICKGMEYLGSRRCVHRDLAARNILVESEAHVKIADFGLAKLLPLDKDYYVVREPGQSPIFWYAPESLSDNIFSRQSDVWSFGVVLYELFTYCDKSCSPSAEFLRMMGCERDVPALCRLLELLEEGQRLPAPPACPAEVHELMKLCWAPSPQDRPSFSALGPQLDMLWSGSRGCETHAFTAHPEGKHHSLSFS
# [8] = test system: STAT5; assay: STAT5 inhibition IC50; format: cell-based
# [9] = molecular target: T2, TXK (Homo sapiens, UniProt P42681); assay: Exemplary Kinase Panel Analysis; format: biochemical; settings: 10 concentrations, 3-fold serial dilutions starting at 5 μM, duplicate
# T2 sequence (P42681 1-527): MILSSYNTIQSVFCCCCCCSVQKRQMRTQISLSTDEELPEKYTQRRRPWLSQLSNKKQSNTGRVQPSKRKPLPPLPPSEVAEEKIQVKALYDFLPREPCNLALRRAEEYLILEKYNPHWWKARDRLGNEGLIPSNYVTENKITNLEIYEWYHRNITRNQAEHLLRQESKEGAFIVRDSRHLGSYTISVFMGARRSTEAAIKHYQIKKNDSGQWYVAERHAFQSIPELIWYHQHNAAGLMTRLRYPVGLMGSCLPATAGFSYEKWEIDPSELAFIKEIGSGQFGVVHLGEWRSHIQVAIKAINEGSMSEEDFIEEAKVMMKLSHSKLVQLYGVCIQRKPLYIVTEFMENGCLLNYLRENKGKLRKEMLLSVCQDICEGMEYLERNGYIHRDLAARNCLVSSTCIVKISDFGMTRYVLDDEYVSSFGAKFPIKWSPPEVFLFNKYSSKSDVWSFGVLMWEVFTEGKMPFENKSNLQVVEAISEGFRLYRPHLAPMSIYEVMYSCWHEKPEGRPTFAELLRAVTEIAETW
# [10] = molecular target: EGFR (G719C) (Homo sapiens, UniProt P00533, G719C); assay: Exemplary Kinase Panel Analysis; format: biochemical; settings: 10 concentrations, 3-fold serial dilutions starting at 5 μM, duplicate
# Protocol: Kinase Panel: These compounds were tested against 439 kinases. […]. […] The results are presented in Table 2 below, where empty cells indicate no inhibition or compound activity that could not be fit to an IC50 curve.
# [11] = molecular target: EGFR (d746-750/T790M) (Homo sapiens, UniProt P00533, DEL746-750/T790M); assay: Exemplary Kinase Panel Analysis; format: biochemical; settings: 10 concentrations, 3-fold serial dilutions starting at 5 μM, duplicate
# [12] = Rat Liver Microsomes stability; format: in vitro ADME; settings: read-out: Rat Liver Microsomes t½
# [13] = molecular target: CYP2C19 (Homo sapiens, UniProt P33261); assay: CYP2C19 inhibition LCMS; format: in vitro ADME
# [14] = pH 7.4, aqueous buffer, pH 7.4, Original, read-out: Solubility pH 7.4 (uM) Original
# [15] = pH 7.4, aqueous buffer, pH 7.4, Re-test, read-out: Solubility pH 7.4 (uM) Re-test
# [16] = pH 7.4, aqueous buffer, pH 7.4, Table 3, first session (before /), read-out: Solubility, pH 7.4
# [17] = pH 7.4, aqueous buffer, pH 7.4, Table 3, second session (after /), read-out: Solubility, pH 7.4
# [18] = Original analysis, read-out: JAK1 IC50 (uM) Original
# [19] = re-test, read-out: JAK1 IC50 (uM) re-test
# [20] = Original analysis, read-out: STAT5 IC50 (uM) Original
# [21] = Table 3, first session (before /), read-out: STATS inhibition IC50
# [22] = Table 3, second session (after /), read-out: STATS inhibition IC50
# [23] = re-test, read-out: STAT5 IC50 (uM) re-test
# JAK1, sequence (P23458 whole entry, species assumed): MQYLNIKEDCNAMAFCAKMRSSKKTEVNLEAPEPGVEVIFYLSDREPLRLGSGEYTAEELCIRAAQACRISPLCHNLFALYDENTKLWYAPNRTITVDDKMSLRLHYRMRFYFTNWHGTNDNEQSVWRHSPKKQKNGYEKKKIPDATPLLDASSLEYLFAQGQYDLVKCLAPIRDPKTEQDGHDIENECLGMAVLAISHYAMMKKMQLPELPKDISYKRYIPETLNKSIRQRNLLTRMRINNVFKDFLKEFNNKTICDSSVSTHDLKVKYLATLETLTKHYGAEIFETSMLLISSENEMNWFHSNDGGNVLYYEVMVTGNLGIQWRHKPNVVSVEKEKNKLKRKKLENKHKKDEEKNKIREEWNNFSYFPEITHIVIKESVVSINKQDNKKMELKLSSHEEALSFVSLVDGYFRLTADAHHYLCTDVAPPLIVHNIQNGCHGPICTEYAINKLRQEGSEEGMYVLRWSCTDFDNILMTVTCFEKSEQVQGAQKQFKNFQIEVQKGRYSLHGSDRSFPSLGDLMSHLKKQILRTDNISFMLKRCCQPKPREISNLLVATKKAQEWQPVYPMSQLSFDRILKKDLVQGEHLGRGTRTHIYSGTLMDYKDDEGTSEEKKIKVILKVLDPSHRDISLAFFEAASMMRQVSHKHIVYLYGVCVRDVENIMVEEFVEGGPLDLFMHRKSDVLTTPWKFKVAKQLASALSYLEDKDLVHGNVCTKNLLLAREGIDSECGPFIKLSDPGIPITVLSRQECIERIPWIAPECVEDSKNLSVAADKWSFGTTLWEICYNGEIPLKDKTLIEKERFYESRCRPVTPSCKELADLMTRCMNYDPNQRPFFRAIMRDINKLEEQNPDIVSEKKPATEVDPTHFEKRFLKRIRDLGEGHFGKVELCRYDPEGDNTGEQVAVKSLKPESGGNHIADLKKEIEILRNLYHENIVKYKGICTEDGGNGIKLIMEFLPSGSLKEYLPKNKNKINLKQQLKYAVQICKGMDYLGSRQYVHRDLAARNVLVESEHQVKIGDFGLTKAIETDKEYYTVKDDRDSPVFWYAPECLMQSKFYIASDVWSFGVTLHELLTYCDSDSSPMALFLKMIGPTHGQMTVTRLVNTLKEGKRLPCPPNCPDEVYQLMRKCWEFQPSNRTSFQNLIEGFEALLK
# CYP2D6, sequence (P10635 whole entry): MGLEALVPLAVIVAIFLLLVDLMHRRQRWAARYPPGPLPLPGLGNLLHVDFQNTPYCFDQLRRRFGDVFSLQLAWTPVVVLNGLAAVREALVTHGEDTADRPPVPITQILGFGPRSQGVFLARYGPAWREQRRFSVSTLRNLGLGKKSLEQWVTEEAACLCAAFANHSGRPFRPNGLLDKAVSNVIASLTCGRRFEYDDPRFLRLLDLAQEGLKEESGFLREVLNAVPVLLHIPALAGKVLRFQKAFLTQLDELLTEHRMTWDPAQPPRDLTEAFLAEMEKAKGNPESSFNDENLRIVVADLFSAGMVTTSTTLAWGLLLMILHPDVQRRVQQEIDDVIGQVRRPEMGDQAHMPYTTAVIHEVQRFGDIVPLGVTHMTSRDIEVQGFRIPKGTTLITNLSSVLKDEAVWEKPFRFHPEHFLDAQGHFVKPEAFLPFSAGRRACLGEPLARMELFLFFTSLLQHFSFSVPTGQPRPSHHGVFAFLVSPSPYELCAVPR
# CK1g3, sequence (Q9Y6M4 whole entry): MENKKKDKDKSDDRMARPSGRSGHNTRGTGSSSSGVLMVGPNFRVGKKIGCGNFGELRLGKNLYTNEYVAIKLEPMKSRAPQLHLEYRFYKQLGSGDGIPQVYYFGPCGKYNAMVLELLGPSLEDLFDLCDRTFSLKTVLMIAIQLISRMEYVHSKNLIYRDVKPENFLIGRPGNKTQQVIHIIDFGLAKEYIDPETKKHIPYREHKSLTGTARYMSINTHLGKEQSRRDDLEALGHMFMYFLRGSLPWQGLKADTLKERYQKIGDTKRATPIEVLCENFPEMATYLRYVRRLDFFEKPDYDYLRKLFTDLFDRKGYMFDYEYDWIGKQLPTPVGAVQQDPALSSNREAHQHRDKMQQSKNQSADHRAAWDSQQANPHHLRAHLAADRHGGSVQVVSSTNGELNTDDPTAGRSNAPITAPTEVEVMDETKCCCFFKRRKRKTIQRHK
# EGFR (G719C), sequence (P00533 25-1210 G719C): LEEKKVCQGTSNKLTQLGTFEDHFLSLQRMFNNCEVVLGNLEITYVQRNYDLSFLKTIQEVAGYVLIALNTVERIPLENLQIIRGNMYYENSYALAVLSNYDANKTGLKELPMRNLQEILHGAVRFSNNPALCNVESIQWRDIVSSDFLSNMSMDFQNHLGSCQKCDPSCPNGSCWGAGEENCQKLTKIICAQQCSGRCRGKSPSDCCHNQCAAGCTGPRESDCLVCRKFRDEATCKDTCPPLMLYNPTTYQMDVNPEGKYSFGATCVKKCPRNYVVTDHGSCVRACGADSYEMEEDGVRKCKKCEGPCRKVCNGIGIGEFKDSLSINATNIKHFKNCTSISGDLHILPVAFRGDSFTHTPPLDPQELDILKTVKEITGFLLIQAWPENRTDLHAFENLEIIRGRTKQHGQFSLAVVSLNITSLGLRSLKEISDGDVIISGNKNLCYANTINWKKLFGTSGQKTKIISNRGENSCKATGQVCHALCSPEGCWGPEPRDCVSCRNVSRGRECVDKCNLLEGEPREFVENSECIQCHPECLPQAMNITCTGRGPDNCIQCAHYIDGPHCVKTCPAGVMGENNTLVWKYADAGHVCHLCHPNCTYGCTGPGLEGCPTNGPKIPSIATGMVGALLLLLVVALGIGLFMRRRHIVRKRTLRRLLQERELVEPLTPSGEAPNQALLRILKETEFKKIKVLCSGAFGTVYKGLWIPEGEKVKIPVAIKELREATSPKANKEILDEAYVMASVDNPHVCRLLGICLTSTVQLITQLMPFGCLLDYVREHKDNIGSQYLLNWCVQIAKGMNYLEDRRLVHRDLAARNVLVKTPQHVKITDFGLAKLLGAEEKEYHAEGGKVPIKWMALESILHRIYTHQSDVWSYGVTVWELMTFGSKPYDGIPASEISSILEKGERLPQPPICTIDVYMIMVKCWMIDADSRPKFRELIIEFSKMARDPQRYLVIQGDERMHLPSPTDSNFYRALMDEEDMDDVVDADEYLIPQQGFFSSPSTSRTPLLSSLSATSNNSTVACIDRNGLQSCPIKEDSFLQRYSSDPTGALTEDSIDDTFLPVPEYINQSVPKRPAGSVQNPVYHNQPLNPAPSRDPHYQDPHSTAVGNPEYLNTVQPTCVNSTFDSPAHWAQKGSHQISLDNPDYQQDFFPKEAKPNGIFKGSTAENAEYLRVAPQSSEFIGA
# CYP2C19, sequence (P33261 whole entry): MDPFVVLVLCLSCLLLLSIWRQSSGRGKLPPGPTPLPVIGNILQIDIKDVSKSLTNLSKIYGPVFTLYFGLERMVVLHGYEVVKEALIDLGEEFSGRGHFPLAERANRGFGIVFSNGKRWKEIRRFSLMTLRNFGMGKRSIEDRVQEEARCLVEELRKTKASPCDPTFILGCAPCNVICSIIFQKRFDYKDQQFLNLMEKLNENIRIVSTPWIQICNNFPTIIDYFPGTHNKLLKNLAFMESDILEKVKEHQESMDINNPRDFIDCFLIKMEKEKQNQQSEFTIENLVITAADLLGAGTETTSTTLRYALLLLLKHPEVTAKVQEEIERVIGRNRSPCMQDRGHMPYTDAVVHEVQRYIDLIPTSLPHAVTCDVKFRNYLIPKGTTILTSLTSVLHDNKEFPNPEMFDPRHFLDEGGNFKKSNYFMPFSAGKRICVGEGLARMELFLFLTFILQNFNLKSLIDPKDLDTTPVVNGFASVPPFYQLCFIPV
# EGFR (d746-750/T790M), sequence (P00533 with tags, fused parts or gaps DEL746-750/T790M limits assumed): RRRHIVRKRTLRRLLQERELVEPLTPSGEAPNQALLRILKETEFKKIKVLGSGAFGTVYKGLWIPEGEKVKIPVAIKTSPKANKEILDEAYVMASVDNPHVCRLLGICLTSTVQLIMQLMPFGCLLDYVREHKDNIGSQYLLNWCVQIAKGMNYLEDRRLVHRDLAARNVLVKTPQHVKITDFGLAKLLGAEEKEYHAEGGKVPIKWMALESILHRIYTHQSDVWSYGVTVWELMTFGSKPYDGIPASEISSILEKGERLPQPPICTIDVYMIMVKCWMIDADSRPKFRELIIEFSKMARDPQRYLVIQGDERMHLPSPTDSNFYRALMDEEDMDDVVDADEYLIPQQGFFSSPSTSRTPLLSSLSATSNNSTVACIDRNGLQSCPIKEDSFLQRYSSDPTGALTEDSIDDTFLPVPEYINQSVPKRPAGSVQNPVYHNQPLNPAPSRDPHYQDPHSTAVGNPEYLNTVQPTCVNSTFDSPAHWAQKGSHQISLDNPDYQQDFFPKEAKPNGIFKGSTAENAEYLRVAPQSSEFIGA
"solubility [1, 14]","solubility [1, 15]","solubility [1, 16]","solubility [1, 17]","IC50 [2, 18]","IC50 [2, 19]",IC50 [3],IC50 ([6]; first session (before /)),IC50 ([6]; second session (after /)),IC50 [7],"IC50 [8, 20]","IC50 [8, 21]","IC50 [8, 22]","IC50 [8, 23]",IC50 [9],IC50 [11],half-life ([12]; first session (before /)),half-life ([12]; second session (after /)),SMILES,"Minimal Effective Concentration (MEC, uM) [4]",AC50 [5],also measured
85 µM,34 µM,85 µM,34 µM,≥ 100 µM,≥ 100 µM,358 nM,> 100 µM,> 100 µM,1.57 nM,1.2 µM,1.2 µM,2.9 µM,2.9 µM,31.6 nM,87.9 nM,50 min,36 min,C=CC(=O)Nc1cc(CN2CCN(C)C(=O)C2)cc(-c2cnc3ccccc3n2)c1 [Compound 1a],9 µM,20000 nM,IC50 [10]: 66.1 nM; IC50 ([13]; first session (before /)): > 100 µM; IC50 ([13]; second session (after /)): 90 µM
34 µM,3 µM,34 µM,3 µM,≥ 100 µM,≥ 100 µM,118 nM,> 100 µM,> 100 µM,24.9 nM,7.5 µM,7.5 µM,7.4 µM,7.4 µM,144 nM,996 nM,38 min,60 min,C=CC(=O)Nc1cc(NS(C)(=O)=O)cc(-c2cnc3ccccc3n2)c1 [Compound 3],10 µM,20000 nM,IC50 ([13]; first session (before /)): > 100 µM; IC50 ([13]; second session (after /)): 59 µM
9 µM,1 µM,9 µM,1 µM,≥ 100 µM,≥ 100 µM,24.4 nM,> 100 µM,> 100 µM,1.19 nM,0.8 µM,0.8 µM,2.9 µM,2.9 µM,14.9 nM,299 nM,2 min,2.2 min,C=CC(=O)Nc1cc(CC(=O)OC)cc(-c2cnc3ccccc3n2)c1 [Compound 2],2 µM,18000 nM,IC50 [10]: 423 nM; IC50 ([13]; first session (before /)): > 100 µM; IC50 ([13]; second session (after /)): 95 µM
88 µM,88 µM,88 µM,88 µM,≥ 100 µM,≥ 100 µM,757 nM,> 100 µM,> 100 µM,0.972 nM,5.5 µM,5.5 µM,8.6 µM,8.6 µM,16.1 nM,560 nM,63 min,77 min,"C=CC(=O)Nc1cc(CN2CCNC(=O)C2)cc(-c2cnc3ccccc3n2)c1 [Compound 1b, N-[3-[(3-oxopiperazin-1-yl)methyl]-5-quinoxalin-2-yl-phenyl] prop-2-enamide]",20 µM,45000 nM,"solubility ([1]; pH 5, aqueous buffer, pH 5.0, read-out: Solubility In Aqueous Buffer pH 5.0): 93 µM; solubility ([1]; pH 6.5, aqueous buffer, pH 6.5, read-out: Solubility In Aqueous Buffer pH 6.5): 108 µM; solubility at pH 7.4 (in words) ([1]; pH 7.4): highly and consistently soluble; IC50 [10]: 193 nM; IC50 ([13]; first session (before /)): > 100 µM; IC50 ([13]; second session (after /)): > 100 µM"
